Source: the supplement of paper PMC4862054

Test system: HDQ-P1
Test: normalised response (% of control), CellTox Green; higher = less cell death (100 = DMSO, 0 = benzethonium chloride kill control)
Conditions: incubation time: 72 h
In short: (§1)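 Each value is the plate-normalised signal at one concentration of the series. Breast cancer cell lines (20 µl suspension) were incubated 72 h in 384-well plates with compound at 5 concentrations in 10-fold steps over a compound-specific 10,000-fold range. CellTox Green and then CellTiter-Glo were read, and each plate was scaled to 0.1 % DMSO (100) and a positive kill control (0).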

SMILES | normalised response
CCn1c(-c2nonc2N)nc2cnc(Oc3cccc(NC(=O)c4ccc(OCCN5CCOCC5)cc4)c3)cc21 (100 nM) | 105%
CNC(=O)c1ccc(N2C(=S)N(c3ccc(C#N)c(C(F)(F)F)c3)C(=O)C2(C)C)cc1F [Enzalutamide] (100 nM) | 71.9%
C=C1C[C@@H]2[C@H](CC[C@]3(C)C(=O)CC[C@@H]23)[C@@]2(C)C=CC(=O)C=C12 [Exemestane] (100 nM) | 94.5%
Cc1cc(Nc2cc(CN3CCOCC3)c3nc(C)c(Cc4ccc(Cl)cc4F)n3n2)n[nH]1 [Gandotinib] (100 nM) | 109%
NC(=O)c1ccc(I)c([N+](=O)[O-])c1 [Iniparib] (100 nM) | 99.5%
CCc1c2c(nc3ccc(OC(=O)N4CCC(N5CCCCC5)CC4)cc13)-c1cc3c(c(=O)n1C2)COC(=O)[C@]3(O)CC [Irinotecan] (100 nM) | 117%
O=C(Nc1cccnc1)N1CCC(Cc2cccc(Oc3ccc(C(F)(F)F)cn3)c2)CC1 [PF-3845] (100 nM) | 105%
Cc1[nH]c2ccccc2c1CCNCc1ccc(/C=C/C(=O)NO)cc1 [Panobinostat] (10 nM) | 102%
COCC1(CO)C(=O)C2CCN1CC2 (stereo not drawn) [Prima-1 Met] (100 nM) | 109%

Test system: HCC1599
Test: as above
Conditions: incubation time: 72 h
In short: as §1

SMILES | normalised response
CCn1c(-c2nonc2N)nc2cnc(Oc3cccc(NC(=O)c4ccc(OCCN5CCOCC5)cc4)c3)cc21 (100 nM) | 96.8%
CNC(=O)c1ccc(N2C(=S)N(c3ccc(C#N)c(C(F)(F)F)c3)C(=O)C2(C)C)cc1F [Enzalutamide] (100 nM) | 103%
C=C1C[C@@H]2[C@H](CC[C@]3(C)C(=O)CC[C@@H]23)[C@@]2(C)C=CC(=O)C=C12 [Exemestane] (100 nM) | 112%
Cc1cc(Nc2cc(CN3CCOCC3)c3nc(C)c(Cc4ccc(Cl)cc4F)n3n2)n[nH]1 [Gandotinib] (100 nM) | 112%
NC(=O)c1ccc(I)c([N+](=O)[O-])c1 [Iniparib] (100 nM) | 83.9%
CCc1c2c(nc3ccc(OC(=O)N4CCC(N5CCCCC5)CC4)cc13)-c1cc3c(c(=O)n1C2)COC(=O)[C@]3(O)CC [Irinotecan] (100 nM) | 99.7%
O=C(Nc1cccnc1)N1CCC(Cc2cccc(Oc3ccc(C(F)(F)F)cn3)c2)CC1 [PF-3845] (100 nM) | 113%
Cc1[nH]c2ccccc2c1CCNCc1ccc(/C=C/C(=O)NO)cc1 [Panobinostat] (10 nM) | 96.4%
COCC1(CO)C(=O)C2CCN1CC2 (stereo not drawn) [Prima-1 Met] (100 nM) | 114%

Test system: CAL-120
Test: as above
Conditions: incubation time: 72 h
In short: as §1

SMILES | normalised response
CCn1c(-c2nonc2N)nc2cnc(Oc3cccc(NC(=O)c4ccc(OCCN5CCOCC5)cc4)c3)cc21 (100 nM) | 102%
CNC(=O)c1ccc(N2C(=S)N(c3ccc(C#N)c(C(F)(F)F)c3)C(=O)C2(C)C)cc1F [Enzalutamide] (100 nM) | 106%
C=C1C[C@@H]2[C@H](CC[C@]3(C)C(=O)CC[C@@H]23)[C@@]2(C)C=CC(=O)C=C12 [Exemestane] (100 nM) | 102%
Cc1cc(Nc2cc(CN3CCOCC3)c3nc(C)c(Cc4ccc(Cl)cc4F)n3n2)n[nH]1 [Gandotinib] (100 nM) | 89%
NC(=O)c1ccc(I)c([N+](=O)[O-])c1 [Iniparib] (100 nM) | 99.1%
CCc1c2c(nc3ccc(OC(=O)N4CCC(N5CCCCC5)CC4)cc13)-c1cc3c(c(=O)n1C2)COC(=O)[C@]3(O)CC [Irinotecan] (100 nM) | 98.7%
O=C(Nc1cccnc1)N1CCC(Cc2cccc(Oc3ccc(C(F)(F)F)cn3)c2)CC1 [PF-3845] (100 nM) | 104%
Cc1[nH]c2ccccc2c1CCNCc1ccc(/C=C/C(=O)NO)cc1 [Panobinostat] (10 nM) | 99.7%
COCC1(CO)C(=O)C2CCN1CC2 (stereo not drawn) [Prima-1 Met] (100 nM) | 102%

Test system: MDA-MB-468
Test: as above
Conditions: incubation time: 72 h
In short: as §1

SMILES | normalised response
CCn1c(-c2nonc2N)nc2cnc(Oc3cccc(NC(=O)c4ccc(OCCN5CCOCC5)cc4)c3)cc21 (100 nM) | 119%
CNC(=O)c1ccc(N2C(=S)N(c3ccc(C#N)c(C(F)(F)F)c3)C(=O)C2(C)C)cc1F [Enzalutamide] (100 nM) | 126%
C=C1C[C@@H]2[C@H](CC[C@]3(C)C(=O)CC[C@@H]23)[C@@]2(C)C=CC(=O)C=C12 [Exemestane] (100 nM) | 50%
Cc1cc(Nc2cc(CN3CCOCC3)c3nc(C)c(Cc4ccc(Cl)cc4F)n3n2)n[nH]1 [Gandotinib] (100 nM) | 119%
NC(=O)c1ccc(I)c([N+](=O)[O-])c1 [Iniparib] (100 nM) | 128%
CCc1c2c(nc3ccc(OC(=O)N4CCC(N5CCCCC5)CC4)cc13)-c1cc3c(c(=O)n1C2)COC(=O)[C@]3(O)CC [Irinotecan] (100 nM) | 99.2%
O=C(Nc1cccnc1)N1CCC(Cc2cccc(Oc3ccc(C(F)(F)F)cn3)c2)CC1 [PF-3845] (100 nM) | 107%
Cc1[nH]c2ccccc2c1CCNCc1ccc(/C=C/C(=O)NO)cc1 [Panobinostat] (10 nM) | 70.6%
COCC1(CO)C(=O)C2CCN1CC2 (stereo not drawn) [Prima-1 Met] (100 nM) | 145%

Test system: MFM-223
Test: as above
Conditions: incubation time: 72 h
In short: as §1

SMILES | normalised response
CCn1c(-c2nonc2N)nc2cnc(Oc3cccc(NC(=O)c4ccc(OCCN5CCOCC5)cc4)c3)cc21 (100 nM) | 95.4%
CNC(=O)c1ccc(N2C(=S)N(c3ccc(C#N)c(C(F)(F)F)c3)C(=O)C2(C)C)cc1F [Enzalutamide] (100 nM) | 101%
C=C1C[C@@H]2[C@H](CC[C@]3(C)C(=O)CC[C@@H]23)[C@@]2(C)C=CC(=O)C=C12 [Exemestane] (100 nM) | 107%
Cc1cc(Nc2cc(CN3CCOCC3)c3nc(C)c(Cc4ccc(Cl)cc4F)n3n2)n[nH]1 [Gandotinib] (100 nM) | 105%
NC(=O)c1ccc(I)c([N+](=O)[O-])c1 [Iniparib] (100 nM) | 97.5%
CCc1c2c(nc3ccc(OC(=O)N4CCC(N5CCCCC5)CC4)cc13)-c1cc3c(c(=O)n1C2)COC(=O)[C@]3(O)CC [Irinotecan] (100 nM) | 73.8%
O=C(Nc1cccnc1)N1CCC(Cc2cccc(Oc3ccc(C(F)(F)F)cn3)c2)CC1 [PF-3845] (100 nM) | 102%
Cc1[nH]c2ccccc2c1CCNCc1ccc(/C=C/C(=O)NO)cc1 [Panobinostat] (10 nM) | 94.9%
COCC1(CO)C(=O)C2CCN1CC2 (stereo not drawn) [Prima-1 Met] (100 nM) | 108%

Test system: HCC1143
Test: as above
Conditions: incubation time: 72 h
In short: as §1

SMILES | normalised response
CCn1c(-c2nonc2N)nc2cnc(Oc3cccc(NC(=O)c4ccc(OCCN5CCOCC5)cc4)c3)cc21 (100 nM) | 101%
CNC(=O)c1ccc(N2C(=S)N(c3ccc(C#N)c(C(F)(F)F)c3)C(=O)C2(C)C)cc1F [Enzalutamide] (100 nM) | 111%
C=C1C[C@@H]2[C@H](CC[C@]3(C)C(=O)CC[C@@H]23)[C@@]2(C)C=CC(=O)C=C12 [Exemestane] (100 nM) | 99.6%
Cc1cc(Nc2cc(CN3CCOCC3)c3nc(C)c(Cc4ccc(Cl)cc4F)n3n2)n[nH]1 [Gandotinib] (100 nM) | 108%
NC(=O)c1ccc(I)c([N+](=O)[O-])c1 [Iniparib] (100 nM) | 70.8%
CCc1c2c(nc3ccc(OC(=O)N4CCC(N5CCCCC5)CC4)cc13)-c1cc3c(c(=O)n1C2)COC(=O)[C@]3(O)CC [Irinotecan] (100 nM) | 86%
O=C(Nc1cccnc1)N1CCC(Cc2cccc(Oc3ccc(C(F)(F)F)cn3)c2)CC1 [PF-3845] (100 nM) | 121%
Cc1[nH]c2ccccc2c1CCNCc1ccc(/C=C/C(=O)NO)cc1 [Panobinostat] (10 nM) | 76.1%
COCC1(CO)C(=O)C2CCN1CC2 (stereo not drawn) [Prima-1 Met] (100 nM) | 83.2%

Test system: CAL-51
Test: as above
Conditions: incubation time: 72 h
In short: as §1

SMILES | normalised response
CCn1c(-c2nonc2N)nc2cnc(Oc3cccc(NC(=O)c4ccc(OCCN5CCOCC5)cc4)c3)cc21 (100 nM) | 63.3%
CNC(=O)c1ccc(N2C(=S)N(c3ccc(C#N)c(C(F)(F)F)c3)C(=O)C2(C)C)cc1F [Enzalutamide] (100 nM) | 74.8%
C=C1C[C@@H]2[C@H](CC[C@]3(C)C(=O)CC[C@@H]23)[C@@]2(C)C=CC(=O)C=C12 [Exemestane] (100 nM) | 116%
Cc1cc(Nc2cc(CN3CCOCC3)c3nc(C)c(Cc4ccc(Cl)cc4F)n3n2)n[nH]1 [Gandotinib] (100 nM) | 98.9%
NC(=O)c1ccc(I)c([N+](=O)[O-])c1 [Iniparib] (100 nM) | 98.5%
CCc1c2c(nc3ccc(OC(=O)N4CCC(N5CCCCC5)CC4)cc13)-c1cc3c(c(=O)n1C2)COC(=O)[C@]3(O)CC [Irinotecan] (100 nM) | 106%
O=C(Nc1cccnc1)N1CCC(Cc2cccc(Oc3ccc(C(F)(F)F)cn3)c2)CC1 [PF-3845] (100 nM) | 110%
Cc1[nH]c2ccccc2c1CCNCc1ccc(/C=C/C(=O)NO)cc1 [Panobinostat] (10 nM) | 99.8%
COCC1(CO)C(=O)C2CCN1CC2 (stereo not drawn) [Prima-1 Met] (100 nM) | 108%

Test system: MDA-MB-231
Test: as above
Conditions: incubation time: 72 h
In short: as §1

SMILES | normalised response
CCn1c(-c2nonc2N)nc2cnc(Oc3cccc(NC(=O)c4ccc(OCCN5CCOCC5)cc4)c3)cc21 (100 nM) | 79.4%
CNC(=O)c1ccc(N2C(=S)N(c3ccc(C#N)c(C(F)(F)F)c3)C(=O)C2(C)C)cc1F [Enzalutamide] (100 nM) | 113%
C=C1C[C@@H]2[C@H](CC[C@]3(C)C(=O)CC[C@@H]23)[C@@]2(C)C=CC(=O)C=C12 [Exemestane] (100 nM) | 117%
Cc1cc(Nc2cc(CN3CCOCC3)c3nc(C)c(Cc4ccc(Cl)cc4F)n3n2)n[nH]1 [Gandotinib] (100 nM) | 103%
NC(=O)c1ccc(I)c([N+](=O)[O-])c1 [Iniparib] (100 nM) | 83%
CCc1c2c(nc3ccc(OC(=O)N4CCC(N5CCCCC5)CC4)cc13)-c1cc3c(c(=O)n1C2)COC(=O)[C@]3(O)CC [Irinotecan] (100 nM) | 89.2%
O=C(Nc1cccnc1)N1CCC(Cc2cccc(Oc3ccc(C(F)(F)F)cn3)c2)CC1 [PF-3845] (100 nM) | 121%
Cc1[nH]c2ccccc2c1CCNCc1ccc(/C=C/C(=O)NO)cc1 [Panobinostat] (10 nM) | 86.3%
COCC1(CO)C(=O)C2CCN1CC2 (stereo not drawn) [Prima-1 Met] (100 nM) | 104%

Test system: CAL-148
Test: as above
Conditions: incubation time: 72 h
In short: as §1

SMILES | normalised response
CCn1c(-c2nonc2N)nc2cnc(Oc3cccc(NC(=O)c4ccc(OCCN5CCOCC5)cc4)c3)cc21 (100 nM) | 98.4%
CNC(=O)c1ccc(N2C(=S)N(c3ccc(C#N)c(C(F)(F)F)c3)C(=O)C2(C)C)cc1F [Enzalutamide] (100 nM) | 100%
C=C1C[C@@H]2[C@H](CC[C@]3(C)C(=O)CC[C@@H]23)[C@@]2(C)C=CC(=O)C=C12 [Exemestane] (100 nM) | 89%
Cc1cc(Nc2cc(CN3CCOCC3)c3nc(C)c(Cc4ccc(Cl)cc4F)n3n2)n[nH]1 [Gandotinib] (100 nM) | 103%
NC(=O)c1ccc(I)c([N+](=O)[O-])c1 [Iniparib] (100 nM) | 53.4%
CCc1c2c(nc3ccc(OC(=O)N4CCC(N5CCCCC5)CC4)cc13)-c1cc3c(c(=O)n1C2)COC(=O)[C@]3(O)CC [Irinotecan] (100 nM) | 104%
O=C(Nc1cccnc1)N1CCC(Cc2cccc(Oc3ccc(C(F)(F)F)cn3)c2)CC1 [PF-3845] (100 nM) | 103%
Cc1[nH]c2ccccc2c1CCNCc1ccc(/C=C/C(=O)NO)cc1 [Panobinostat] (10 nM) | 83.1%
COCC1(CO)C(=O)C2CCN1CC2 (stereo not drawn) [Prima-1 Met] (100 nM) | 106%

Test system: BT-549
Test: as above
Conditions: incubation time: 72 h
In short: as §1

SMILES | normalised response
CCn1c(-c2nonc2N)nc2cnc(Oc3cccc(NC(=O)c4ccc(OCCN5CCOCC5)cc4)c3)cc21 (100 nM) | 90.2%
CNC(=O)c1ccc(N2C(=S)N(c3ccc(C#N)c(C(F)(F)F)c3)C(=O)C2(C)C)cc1F [Enzalutamide] (100 nM) | 103%
